Assay: Half life (T 1/2) estimated in the absence of light, in 50 mM Tris-HCl 1 mM EDTA (pH 7.4) buffer.
Format: ADME
Conditions: 50 mM Tris-HCl 1 mM EDTA buffer

Row | SMILES | half-life
1 | CC(c1ccc(Cl)cc1)N1CCC2(CC1)C(=O)NCN2c1ccc(N=[N+]=[N-])cc1 (centres undefined) | > 1440 min
2 | CN(c1ccc(N=[N+]=[N-])cc1)C1CCC2(O)C3Cc4ccc(O)c5c4C2(CCN3CC2CC2)C1O5 (centres undefined) | > 1440 min
3 | CC(c1ccc(Cl)cc1)N1CCC2(CC1)C(=O)NCN2c1ccc([N+]#N)cc1 (centres undefined) | 300 min
4 | CN(c1ccc([N+]#N)cc1)C1CCC2(O)C3Cc4ccc(O)c5c4C2(CCN3CC2CC2)C1O5 (centres undefined) [NALTREXONEDIAZONIUM] | 300 min

Reference: ChEMBL document CHEMBL1124903 (J Med Chem, 1990)
